Measured values from patent US20220281876A1, “DEGRADATION OF BRUTON'S TYROSINE KINASE (BTK) BY CONJUGATION OF BTK INHIBITORS WITH E3 LIGASE LIGAND AND METHODS OF USE” (BEIGENE, LTD., priority 2019, published 2022).

target: T1, BTK (Homo sapiens, UniProt Q06187); experiment: BTK cell degradation in Ramos cells (total BTK ELISA); format: cell-based; conditions: 16 h incubation, FastScan total BTK ELISA
T1 construct: endogenous in cells; host or cells: Ramos cells
Experimental: Ramos cells are treated with compounds diluted in 0.1% DMSO, dilution is done according to the following protocol: (1) make 1000x stock solution in DMSO from 10 mM by 5-fold dilution, total 7 doses were included; (2) make 10x solution in cell culture medium by transferring 1 ul 1000x stock solution into 99 ul medium; (3) 11 ul of 10× solution is added to cells and incubate for 16 h.
Cells in 96 well plate are harvested by centrifugation (1200 rpm), and wash once with ice-cold PBS. Then, 100 ul 1×cell extraction buffer is added in each well. The cells are placed on a shaker for 20 min at 4° C.; 5 ul lysate is transferred to 45 ul of 1×cell extraction buffer in ELISA plate, and 50 ul of the antibody cocktail is added in each well; seal the plate and incubate 1 hour at room temperature on a plate shaker; medium is discarded from the plate, tap the plated on a paper towel, wash 3×200 ul ELISA wash buffer; add 100 ul of TMB to each well and incubate the plate in the dark for 15 min at room temperature on a shaker; add 100 ul of STOP solution to each well; read absorbance at 450 nm. The BTK ELISA assay was performed using FastScan total BTK ELISA kit (Cell Signaling Cat #36609).

T1 sequence (Q06187 whole entry): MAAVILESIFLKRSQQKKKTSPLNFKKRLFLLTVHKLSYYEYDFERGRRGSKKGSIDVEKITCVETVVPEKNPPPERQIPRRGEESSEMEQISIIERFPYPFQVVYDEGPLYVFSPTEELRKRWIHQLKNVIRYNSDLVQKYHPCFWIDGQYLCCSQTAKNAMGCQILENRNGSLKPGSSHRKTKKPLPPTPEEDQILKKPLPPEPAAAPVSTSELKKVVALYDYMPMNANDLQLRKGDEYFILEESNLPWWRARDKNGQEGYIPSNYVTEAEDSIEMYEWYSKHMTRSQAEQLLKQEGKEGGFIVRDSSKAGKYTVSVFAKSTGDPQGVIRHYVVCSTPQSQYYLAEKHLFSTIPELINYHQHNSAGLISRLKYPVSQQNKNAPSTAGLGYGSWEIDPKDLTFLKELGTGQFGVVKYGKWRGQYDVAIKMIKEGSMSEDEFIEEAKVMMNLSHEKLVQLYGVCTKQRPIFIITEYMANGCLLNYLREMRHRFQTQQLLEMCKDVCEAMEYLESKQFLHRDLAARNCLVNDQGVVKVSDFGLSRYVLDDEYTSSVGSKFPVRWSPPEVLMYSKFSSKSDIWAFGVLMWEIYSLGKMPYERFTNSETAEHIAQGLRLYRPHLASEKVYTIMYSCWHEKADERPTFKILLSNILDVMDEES

Row | SMILES | DC50 [nM]
1 | CN(/C=C/C(=O)N1CCC([C@@H]2CCNc3c(C(N)=O)c(-c4ccc(Oc5ccccc5)cc4)nn32)CC1)CCNc1cccc2c1C(=O)N(C1CCC(=O)NC1=O)C2=O (stereo partly drawn) [Example 49, (7S)-7-(1-((E)-3-((2-((2-(2,6-dioxopiperidin-3-yl)-1,3-dioxoisoindolin-4-yl)amino)ethyl)(methyl)amino)acryloyl)piperidin-4-yl)-2-(4-phenoxyphenyl)-4,5,6,7-tetrahydropyrazolo[1,5-a]pyrimidine-3-carboxamide] | > 10000
2 | NC(=O)c1c(-c2ccc(Oc3ccccc3)cc2)nn2c1NCC[C@H]2C1CCN(C(=O)c2cn(CCOCCOCCOCCOCC#Cc3cccc4c3CN(C3CCC(=O)NC3=O)C4=O)nn2)CC1 (stereo partly drawn) [Example 11, (7S)-7-(1-(1-(15-(2-(2,6-dioxopiperidin-3-yl)-1-oxoisoindolin-4-yl)-3,6,9, 12-tetraoxapentadec-14-yn-1-yl)-1H-1,2,3-triazole-4-carbonyl)piperidin-4-yl)-2-(4-phenoxyphenyl)-4,5,6,7-tetrahydropyrazolo[1,5-a]pyrimidine-3-carboxamide] | 176
3 | NC(=O)c1c(-c2ccc(Oc3ccccc3)cc2)nn2c1NCC[C@H]2C1CCN(C(=O)c2cn(CCOCCOCC#Cc3cccc4c3CN(C3CCC(=O)NC3=O)C4=O)nn2)CC1 (stereo partly drawn) [Example 4, (7S)-7-(1-(1-(2-(2-((3-(2-(2,6-dioxopiperidin-3-yl)-1-oxoisoindolin-4-yl)prop-2-yn-1-yl)oxy)ethoxy)ethyl)-1H-1,2,3-triazole-4-carbonyl)piperidin-4-yl)-2-(4-phenoxyphenyl)-4,5,6,7-tetrahydropyrazolo[1,5-a]pyrimidine-3-carboxamide] | > 10000
4 | NC(=O)c1c(-c2ccc(Oc3ccccc3)cc2)nn2c1NCC[C@H]2C1CCN(C(=O)CCN2CCN(c3ccc(CNC(=O)CNc4cccc5c4CN(C4CCC(=O)NC4=O)C5=O)cc3)CC2)CC1 (stereo partly drawn) [Example 45, (7S)-7-(1-(3-(4-(4-((2-((2-(2,6-dioxopiperidin-3-yl)-1-oxoisoindolin-4-yl)amino)acetamido)methyl)phenyl)piperazin-1-yl)propanoyl)piperidin-4-yl)-2-(4-phenoxyphenyl)-4,5,6,7-tetrahydropyrazolo[1,5-a]pyrimidine-3-carboxamide] | 382
5 | CN(C/C=C/C(=O)N1CCC([C@@H]2CCNc3c(C(N)=O)c(-c4ccc(Oc5ccccc5)cc4)nn32)CC1)CCCN1C(=O)CCC(N2Cc3c(N)cccc3C2=O)C1=O (stereo partly drawn) [Example 54, (7S)-7-(1-((E)-4-((3-(3-(4-amino-1-oxoisoindolin-2-yl)-2,6-dioxopiperidin-1-yl)propyl)(methyl)amino)but-2-enoyl)piperidin-4-yl)-2-(4-phenoxyphenyl)-4,5,6,7-tetrahydropyrazolo[1,5-a]pyrimidine-3-carboxamide] | 428
6 | NC(=O)c1c(-c2ccc(Oc3ccccc3)cc2)nn2c1NCCC2C1CCN(C(=O)CC2CCC(N3CCN(c4ccc5c(c4)C(=O)N(C4CCC(=O)NC4=O)C5=O)CC3)CC2)CC1 (stereo in doubt) [Example 147, (7R)-7-(1-(2-(4-(4-(2-(2,6-dioxopiperidin-3-yl)-1,3-dioxoisoindolin-5-yl)piperazin-1-yl)cyclohexyl)acetyl)piperidin-4-yl)-2-(4-phenoxyphenyl)-4,5,6,7-tetrahydropyrazolo[1,5-a]pyrimidine-3-carboxamide] | 244
7 | NC(=O)c1c(-c2ccc(Oc3ccccc3)cc2)nn2c1NCC[C@H]2C1CCN(CCOCCOCC(=O)Nc2ccc3c(c2)C(=O)N(C2CCC(=O)NC2=O)C3=O)CC1 (stereo partly drawn) [Example 24, (7S)-7-(1-(2-(2-(2-((2-(2,6-dioxopiperidin-3-yl)-1,3-dioxoisoindolin-5-yl)amino)-2-oxoethoxy)ethoxy)ethyl)piperidin-4-yl)-2-(4-phenoxyphenyl)-4,5,6,7-tetrahydropyrazolo[1,5-a]pyrimidine-3-carboxamide] | 34
